The values below come from patent US10800767B2, “Thyroid hormone receptor beta agonist compounds” (Terns, Inc., priority 2018, dated 2020).

The target of test [1] is TR alpha-LBD (thyroid hormone receptor alpha) (Homo sapiens (Human), UniProt P10827). Kind of test: LanthaScreen TR-FRET Thyroid Receptor alpha Coactivator Assay (agonist screening). The test is classed as biochemical. To be noted: TR alpha-LBD 0.4 nM, 2 hour incubation, average of duplicate runs, read-out: EC50 THRα-FRET. On the procedure:
(§1) Example B1: Time-Resolved Fluorescence Resonance Energy Transfer (TR-FRET) Assay for Thyroid Hormone Receptor Agonist Screening
(§2) LanthaScreen™ TR-FRET Thyroid Receptor alpha Coactivator Assay kit (ThermoFisher) and LanthaScreen™ TR-FRET Thyroid Receptor beta Coactivator Assay kit (ThermoFisher) were used for agonist compound screening. Compounds in DMSO were diluted using ECHO Liquid Handler (Labcyte Inc.) into 384 plates in 10-point 3-fold series in duplicate (5 micro M final top concentration). Buffer C (ThermoFisher) was added to each well before the 4× mixture of fluorescein-SCR2-2 coactivator (200 nM final concentration), Terbium-labeled anti-GST antibody (2 nM final concentration), and TR alpha-LBD (0.4 nM final concentration) or TR beta-LBD (1.0 nM final concentration) was added. After 2 hour incubation at room temperature in dark, the TR-FRET signal was measured on an EnVision plate reader (PerkinElmer) with excitation at 340 nm and dual emission readout at 495 and 520 nm with the delay time of 100 micro second and the integration time of 200 micro second. The ratio of emission signal at 520 and at 495 was used to calculate EC50 using GraphPad Prism (GraphPad Software). In every batch of compound screening, T3 (L-3,3′,5-Triiodothyronine sodium salt, >95%) (Calbiochem) was used as reference compound. The EC50 of T3 measured were within 3-fold of the reference value provided by the assay kit manufacturer (ThermoFisher Scientific). The Z′ factors measured in every batch of screening using T3 as high percent effect (HPE) control and 0.5% DMSO as zero percent effect (ZPE) control were in the range of 0.5 to 0.8. Compounds' THR-beta selectivity values are derived from T3-selectivity normalized data.

Test [2] deals with TR beta-LBD (thyroid hormone receptor beta) (Homo sapiens (Human), UniProt P10828). Nature of the test: LanthaScreen TR-FRET Thyroid Receptor beta Coactivator Assay (agonist screening). Conditions: for THRβ-Selectivity: THR beta over THR alpha, derived from T3-selectivity normalized data; for EC50: TR-FRET coactivator assay, TR beta-LBD 1.0 nM, 2 hour incubation, average of duplicate runs, read-out: EC50 THRβ-FRET. The test is classed as biochemical. On the procedure: as §1, §2
TR beta-LBD (thyroid hormone receptor beta), sequence (P10828 217-461): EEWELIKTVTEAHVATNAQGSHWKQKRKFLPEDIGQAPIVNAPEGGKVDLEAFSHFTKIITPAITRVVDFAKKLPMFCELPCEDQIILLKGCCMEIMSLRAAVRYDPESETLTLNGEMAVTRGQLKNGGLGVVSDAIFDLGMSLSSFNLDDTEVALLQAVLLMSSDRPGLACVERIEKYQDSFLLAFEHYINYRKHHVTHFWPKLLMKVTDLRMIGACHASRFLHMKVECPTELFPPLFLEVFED
(In general: TR-FRET usually uses a lanthanide donor and a delayed reading to cut background.)

TR alpha-LBD (thyroid hormone receptor alpha), sequence (P10827 other isoform, or with tags, fused parts or gaps del 1-162, other chains not shown): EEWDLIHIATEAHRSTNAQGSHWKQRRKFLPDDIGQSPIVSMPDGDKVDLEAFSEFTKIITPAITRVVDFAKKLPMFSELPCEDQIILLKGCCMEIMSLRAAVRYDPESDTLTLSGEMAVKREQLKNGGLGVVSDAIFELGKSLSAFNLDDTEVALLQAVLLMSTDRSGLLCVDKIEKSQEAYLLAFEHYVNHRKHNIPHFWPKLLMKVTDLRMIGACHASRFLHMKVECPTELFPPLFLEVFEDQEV

What is called EC50 is the concentration needed to bring the measured effect to its halfway point. `CC(C)c1cc(C(=O)c2c(Cl)cc(NCc3noc(=O)[nH]3)cc2Cl)nn(C)c1=O` [Example 18, 3-(((3,5-dichloro-4-(5-isopropyl-1-methyl-6-oxo-1,6-dihydropyridazine-3-carbonyl)phenyl)amino)methyl)-1,2,4-oxadiazol-5(4H)-one]: the EC50 in test [1] is 550 nM. In test [2], the THRβ-Selectivity was found to be 6.1 and the EC50 was determined as 271 nM.

In the case of `CC(C)c1cc(S(=O)(=O)c2c(Cl)cc(NCc3noc(=O)[nH]3)cc2Cl)nn(C)c1=O` [Example 19, 3-(((3,5-dichloro-4-((5-isopropyl-1-methyl-6-oxo-1,6-dihydropyridazin-3-yl)sulfonyl)phenyl)amino)methyl)-1,2,4-oxadiazol-5(4H)-one], the EC50 in test [1] is 1930 nM; in test [2], > 5000 nM.

Consider `CC(C)c1cc(S(=O)(=O)c2c(Cl)cc(NC(=O)c3noc(=O)[nH]3)cc2Cl)nn(C)c1=O` [Example 20, N-(3,5-dichloro-4-((5-isopropyl-1-methyl-6-oxo-1,6-dihydropyridazin-3-yl)sulfonyl)phenyl)-5-oxo-4,5-dihydro-1,2,4-oxadiazole-3-carboxamide], for which the 50% effective concentration (EC50) in test [1] and in test [2] was > 5000 nM in each case.

Consider `O=C(Nc1cc(Cl)c(Cc2cc(C3CC3)c(=O)[nH]n2)c(Cl)c1)c1noc(=O)[nH]1` [Example 21, N-(3,5-dichloro-4-((5-cyclopropyl-6-oxo-1,6-dihydropyridazin-3-yl)methyl)phenyl)-5-oxo-4,5-dihydro-1,2,4-oxadiazole-3-carboxamide], for which, in test [1], the concentration for a half-maximal effect (EC50) is > 5000 nM. Also, in test [2], the THRβ-Selectivity is on record as >113 and the EC50 was 180 nM.

For the compound `Cn1nc(Cc2c(Cl)cc(NC(=O)c3noc(=O)[nH]3)cc2Cl)cc(C2CC2)c1=O` [Example 22, N-(3,5-dichloro-4-((5-cyclopropyl-1-methyl-6-oxo-1,6-dihydropyridazin-3-yl)methyl)phenyl)-5-oxo-4,5-dihydro-1,2,4-oxadiazole-3-carboxamide], the EC50 in test [1] turned out to be 898 nM; in test [2], 181 nM. The THRβ-Selectivity in test [2] was 19.5.

For `CC(C)c1cc(Oc2c(Cl)cc(NC(=O)c3noc(=O)[nH]3)cc2Cl)n[nH]c1=O` [Example 23, N-(3,5-dichloro-4-((5-isopropyl-6-oxo-1,6-dihydropyridazin-3-yl)oxy)phenyl)-5-oxo-4,5-dihydro-1,2,4-oxadiazole-3-carboxamide], in test [1], the half-maximal effective concentration (EC50) stood at 1320 nM. Further, in test [2], the THRβ-Selectivity was determined as 67.3 and the EC50 turned out to be 87.3 nM.

For the compound `CC(C)c1cc(Oc2c(Cl)cc(NC(=O)c3noc(=O)[nH]3)c3c2CCC3)nn(C)c1=O` [Example 24, N-(6-chloro-7-((5-isopropyl-1-methyl-6-oxo-1,6-dihydropyridazin-3-yl)oxy)-2,3-dihydro-1H-inden-4-yl)-5-oxo-4,5-dihydro-1,2,4-oxadiazole-3-carboxamide], the EC50 was 2050 nM in test [1] and 188 nM in test [2]. For the same compound, the THRβ-Selectivity in test [2] was 39.5.

Consider `O=C(Nc1cc(Cl)c(Oc2cc(C3CC3)c(=O)[nH]n2)c(Cl)c1)c1noc(=O)[nH]1` [Example 25, N-(3,5-dichloro-4-((5-cyclopropyl-6-oxo-1,6-dihydropyridazin-3-yl)oxy)phenyl)-5-oxo-4,5-dihydro-1,2,4-oxadiazole-3-carboxamide], for which the EC50 is 2420 nM in test [1] and 231 nM in test [2]. In addition, the THRβ-Selectivity in test [2] came to 42.1.

Take `CC(C)c1cc(Oc2c(Cl)cc(NC(=O)c3noc(=O)[nH]3)c(F)c2Cl)nn(C)c1=O` [Example 26, N-(3,5-dichloro-2-fluoro-4-((5-isopropyl-1-methyl-6-oxo-1,6-dihydropyridazin-3-yl)oxy)phenyl)-5-oxo-4,5-dihydro-1,2,4-oxadiazole-3-carboxamide]: the EC50 in test [1] came to 699 nM. In addition, in test [2], the THRβ-Selectivity is 44.6 and the EC50 was 58.1 nM.

On to `CC(C)c1cc(Oc2c(Cl)cc(NCc3noc(=O)[nH]3)c(F)c2Cl)nn(C)c1=O` [Example 27, 3-(((3,5-dichloro-2-fluoro-4-((5-isopropyl-1-methyl-6-oxo-1,6-dihydropyridazin-3-yl)oxy)phenyl)amino)methyl)-1,2,4-oxadiazol-5(4H)-one], for which the EC50 in test [1] is 144 nM. Also, in test [2], the THRβ-Selectivity worked out at 21.5 and the EC50 is 26.8 nM.

`CC(C)(C)c1cc(Oc2c(Cl)cc(NC(=O)c3noc(=O)[nH]3)cc2Cl)n[nH]c1=O` [Example 28, N-(4-((5-(tert-butyl)-6-oxo-1,6-dihydropyridazin-3-yl)oxy)-3,5-dichlorophenyl)-5-oxo-4,5-dihydro-1,2,4-oxadiazole-3-carboxamide]: the EC50 in test [1] was 4260 nM. Also, in test [2], the THRβ-Selectivity is recorded as 67 and the EC50 amounted to 286 nM.

As for `CC(O)c1cc(Oc2c(Cl)cc(NC(=O)c3noc(=O)[nH]3)cc2Cl)n[nH]c1=O` (stereo not shown) [Example 29, N-(3,5-dichloro-4-((5-(1-hydroxyethyl)-6-oxo-1,6-dihydropyridazin-3-yl)oxy)phenyl)-5-oxo-4,5-dihydro-1,2,4-oxadiazole-3-carboxamide], the EC50 in test [1] amounted to 4340 nM. In test [2], the THRβ-Selectivity came to 88.9 and the EC50 came to 235 nM.

In the case of `C[C@@H](O)c1cc(Oc2c(Cl)cc(NC(=O)c3noc(=O)[nH]3)cc2Cl)n[nH]c1=O` [Example 29P1, (R)—N-(3,5-dichloro-4-((5-(1-hydroxyethyl)-6-oxo-1,6-dihydropyridazin-3-yl)oxy)phenyl)-5-oxo-4,5-dihydro-1,2,4-oxadiazole-3-carboxamide], the EC50 in test [1] is > 5000 nM; in test [2], 2640 nM. Moreover, in test [2], the THRβ-Selectivity was >10.4.

As for `C[C@H](O)c1cc(Oc2c(Cl)cc(NC(=O)c3noc(=O)[nH]3)cc2Cl)n[nH]c1=O` [Example 29P2, (S)—N-(3,5-dichloro-4-((5-(1-hydroxyethyl)-6-oxo-1,6-dihydropyridazin-3-yl)oxy)phenyl)-5-oxo-4,5-dihydro-1,2,4-oxadiazole-3-carboxamide], the EC50 in test [1] was 1760 nM; in test [2], 91.3 nM. In addition, the THRβ-Selectivity in test [2] stood at 80.8.

With `Cc1cc(NC(=O)c2noc(=O)[nH]2)cc(C)c1Cc1cc(C(C)C)c(=O)[nH]n1` [Example 30, N-(4-((5-isopropyl-6-oxo-1,6-dihydropyridazin-3-yl)methyl)-3,5-dimethylphenyl)-5-oxo-4,5-dihydro-1,2,4-oxadiazole-3-carboxamide], in test [1], the EC50 was 3110 nM. For the same compound, in test [2], the THRβ-Selectivity was found to be 14.3 and the 50% effective concentration (EC50) is 821 nM.

On to `O=C(Nc1cc(Cl)c(Oc2cc(C34CC(C3)C4)c(=O)[nH]n2)c(Cl)c1)c1noc(=O)[nH]1` [Example 31, N-(4-((5-(bicyclo[1.1.1]pentan-1-yl)-6-oxo-1,6-dihydropyridazin-3-yl)oxy)-3,5-dichlorophenyl)-5-oxo-4,5-dihydro-1,2,4-oxadiazole-3-carboxamide], for which, in test [1], the EC50 is > 5000 nM. In addition, in test [2], the THRβ-Selectivity is reported as >34.8 and the EC50 came out at 600 nM.

Regarding `CCC(O)c1cc(Oc2c(Cl)cc(NC(=O)c3noc(=O)[nH]3)cc2Cl)n[nH]c1=O` (stereo not shown) [Example 32, N-(3,5-dichloro-4-((5-(1-hydroxypropyl)-6-oxo-1,6-dihydropyridazin-3-yl)oxy)phenyl)-5-oxo-4,5-dihydro-1,2,4-oxadiazole-3-carboxamide], the EC50 in test [1] came out at 1550 nM. Also, in test [2], the THRβ-Selectivity was found to be 77.9 and the EC50 was 86.4 nM.

Regarding `CC[C@@H](O)c1cc(Oc2c(Cl)cc(NC(=O)c3noc(=O)[nH]3)cc2Cl)n[nH]c1=O` [Example 32P1, (R)—N-(3,5-dichloro-4-((5-(1-hydroxypropyl)-6-oxo-1,6-dihydropyridazin-3-yl)oxy)phenyl)-5-oxo-4,5-dihydro-1,2,4-oxadiazole-3-carboxamide], the results for the EC50 in test [1] and in test [2] were 4230 nM and 450 nM, respectively. The THRβ-Selectivity in test [2] was 27.9.

For `CC[C@H](O)c1cc(Oc2c(Cl)cc(NC(=O)c3noc(=O)[nH]3)cc2Cl)n[nH]c1=O` [Example 32P2, (S)—N-(3,5-dichloro-4-((5-(1-hydroxypropyl)-6-oxo-1,6-dihydropyridazin-3-yl)oxy)phenyl)-5-oxo-4,5-dihydro-1,2,4-oxadiazole-3-carboxamide], the figures for the EC50 in test [1] and in test [2] were 1150 nM and 43.3 nM, respectively. This compound displayed a THRβ-Selectivity in test [2] of 81.

For `CC(C)(O)c1cc(Oc2c(Cl)cc(NC(=O)c3noc(=O)[nH]3)cc2Cl)n[nH]c1=O` [Example 33, N-(3,5-dichloro-4-((5-(2-hydroxypropan-2-yl)-6-oxo-1,6-dihydropyridazin-3-yl)oxy)phenyl)-5-oxo-4,5-dihydro-1,2,4-oxadiazole-3-carboxamide], the EC50 in test [1] is > 5000 nM; in test [2] it was 212 nM. Moreover, the THRβ-Selectivity in test [2] is >84.3.
